In patent US20240197680A1, “VORUCICLIB DOSING REGIMENS AND METHODS OF TREATMENT INCLUDING THE SAME” (MEI Pharma, Inc., priority 2021, published 2024):

Tests used:
Solid Tumors [1] = test: Monotherapy Phase 1 study in solid tumors, daily continuously schedule; type: in vivo, human
[2] = Monotherapy Phase 1 studies in solid tumors: safety profile; type: in vivo, human; settings: Phase 1 monotherapy
[3] = test system: HCT-116 CRC cell xenograft; settings: SCID, mouse, in vivo, po, 100 mg/kg
Protocol: Animals were randomized into 2 groups when tumors reached 100 mm diameter. Group A assigned single dosing. […] Drug concentration was measured in tumor and plasma after last dose at the following time points: 0, 4, 8, 24, 48, 72 hrs. […] Concentration of voruciclib in plasma is in units of μg/ml and in μg/g for tumors.

Gelling in aqueous media = type: physicochemical
Protocol: Voruciclib can form a gel when dissolved in various media, depending on the other chemicals present. […] In general, voruciclib was more prone to gel at suspension concentrations >5 mg/mL and solubilities >0.5 mg/mL.

[4] = PK of voruciclib, 2 weeks of daily dosing followed by 1 week without dosing in a 21-day cycle (Table 1); type: in vivo, human; settings: mean
[5] = test system: Venetoclax Sensitive and Resistant Cell Lines; test: Synergy with venetoclax in cell lines; type: cell-based; settings: Ven Sensitive and Ven Resistant cell lines
Source text: FIG. 4A: Ven Sensitive; FIG. 4B: Ven Resistant.

[6] = PK of voruciclib, daily dosing continuously (Table 2); type: in vivo, human; settings: mean; for Accumulation Ratio (AUC0-t): Day 15/Day 1
clinical = settings: human, in vivo
Source text: Voruciclib half-life is designated as t1/2 in the tables (expressed in hours). […] There is interpatient variability, explaining the outlier values.

[7] = test system: Relapsed/Refractory B-cell malignancies; Relapsed/Refractory AML; type: in vivo, human
Protocol: Study population: Relapsed/Refractory B-cell malignancies; Relapsed/Refractory AML; Dose escalation with standard 3+3 design.
Endpoints: Safety and tolerability, Pharmacokinetics, Biologic correlative studies (BH3 profiling, MCL-1 expression, molecular mutations analysis), Response rates.
Voruciclib single agent dose escalation: 50 mg>100 mg>150 mg>200 mg.
Differentiation syndrome seen in 5 pts (50%) (Increased WBC without increased in blasts, bone pain, pulmonary symptoms; Response to corticosteroids).

Solid Tumors [8] = test: Monotherapy Phase 1 study in solid tumors, 2 weeks on/1 week off schedule; type: in vivo, human; settings: 29 pts
c-MYC expression = test: Gene biomarkers in Phase 1 daily dosing study: c-MYC expression in solid tumors; type: in vivo, human

level in tumor at 8 hours compared to 24 hours post dosing [3]: > 5 fold
solubility at which more prone to gel (Gelling in aqueous media): > 500 µg/mL
suspension concentration at which more prone to gel (Gelling in aqueous media): > 5 mg/mL
Gelling (Gelling in aqueous media; pH 1.6 (FaSSGF)): Gelling was observed
Gelling (Gelling in aqueous media; pH 6.5 (FaSSIF)): Gelling was observed
t½ ([4]; Day 1, 600 mg): 32.544 h
AUC0-∞ ([4]; Day 13, 300 mg): 59331.780 ng·h/mL
t½ ([4]; Day 13, 300 mg): 16.166 h
t½ ([4]; Day 13, 850 mg): 22.380 h
t½ ([6]; Day 1, 75 mg): 21.776 h
AUC0-∞ ([6]; Day 1, 150 mg): 15592.890 ng·h/mL
AUC0-∞ ([6]; Day 1, 250 mg): 16383.699 ng·h/mL
Cmax ([6]; Day 1, 250 mg): 471.955 ng/mL
AUC0-24 ([6]; Day 1, 350 mg): 10388.095 ng·h/mL
CL/F ([6]; Day 1, 350 mg): 4.224 L/h
AUC0-24 ([6]; Day 1, 500 mg): 16370.472 ng·h/mL
AUC0-t ([6]; Day 1, 500 mg): 16370.472 ng·h/mL
CL/F ([6]; Day 1, 500 mg): 2.107 L/h
Accumulation Ratio (AUC0-t) ([6]; 75 mg): 2.634
Accumulation Ratio (AUC0-t) ([6]; 150 mg): 3.637
Accumulation Ratio (AUC0-t) ([6]; 250 mg): 3.090
Accumulation Ratio (AUC0-t) ([6]; 350 mg): 2.767
Accumulation Ratio (AUC0-t) ([6]; 500 mg): 2.577
AUC0-∞ ([6]; Day 15, 75 mg): 27200.362 ng·h/mL
AUC0-24 ([6]; Day 15, 150 mg): 16642.661 ng·h/mL
AUC0-t ([6]; Day 15, 150 mg): 16642.661 ng·h/mL
AUC0-∞ ([6]; Day 15, 150 mg): 164073.250 ng·h/mL
t½ ([6]; Day 15, 150 mg): 131.733 h
Cmax ([6]; Day 15, 250 mg): 1047.832 ng/mL
t½ ([6]; Day 15, 250 mg): 38.750 h
AUC0-∞ ([6]; Day 15, 350 mg): 164113.625 ng·h/mL
CL/F ([6]; Day 15, 350 mg): 1.607 L/h
AUC0-24 ([6]; Day 15, 500 mg): 40465.337 ng·h/mL
AUC0-t ([6]; Day 15, 500 mg): 40465.337 ng·h/mL
AUC0-∞ ([6]; Day 15, 500 mg): 108301.704 ng·h/mL
CL/F ([6]; Day 15, 500 mg): 1.031 L/h
additional time to clear from the tissue after it clears the plasma (clinical): 3 days
half-life (clinical): 120 to 240 h
Cmax and AUC dose dependence ([7]; human, in vivo): Dose proportional
volume of distribution ([7]; human, in vivo): High
Compound: CN1CC[C@@H](c2c(O)cc(O)c3c(=O)cc(-c4ccc(C(F)(F)F)cc4Cl)oc23)[C@@H]1CO [Voruciclib, (+)-trans-2-(2-chloro-4-trifluoromethylphenyl)-5,7-dihydroxy-8-(2-hydroxymethyl-1-methylpyrrolidin-3-yl)-chromen-4-one]
duration of SD, median (Solid Tumors [1]): 15 weeks
most common AEs [2]: involved GI tract
myelosuppression [2]: no evidence of myelosuppression
synergy with Venetoclax [5]: Synergizes
Differentiation syndrome (number of pts) ([7]; AML patients): 5
Differentiation syndrome (share of pts) ([7]; AML patients): 50%
GI toxicity or neutropenia ([7]; in vivo): No GI toxicity or neutropenia
PR (number of patients) (Solid Tumors [8]): 1
patients with decreased c-MYC expression / patients tested (c-MYC expression): 17/25
